Among the data in US20040146617A1, “Compositions and methods for suppressing cracking and water loss from cherries” (priority 1998, published 2004) are firmness values, retold here.

The test system of this assay is cherries. Briefly: Cherry firmness after cold storage, pre-harvest application. It counts as in vivo. As to conditions: after 12 days of cold storage (33° F.); sprayed 2 weeks before harvest; calcium chloride 0.5% w/v, Formulation III 10% (v/v). As to the method:
1. Effect of Pre-Harvest Application of Matrix III and Calcium on Firmness. The effect of the Formulation III (Matrix III, see EXAMPLE 15) on cherry firmness was determined in the lab with a firmness meter. Firmness is a function of water content. […] After drying, a 10% (v/v) dilution of Formulation III was applied to half of the trees. […] Increased firmness was also observed in a larger orchard trial with ‘Bing’ and ‘Van’ cherries.

Turning to `[Ca+2].[Cl-].[Cl-]` [calcium chloride, Calcium chloride], the firmness is 277.1 mg/mm^2.
